Laboratory results: patent US9765075B2, “Substituted bridged urea analogs as sirtuin modulators” (GLAXOSMITHKLINE LLC, priority 2013, dated 2017)

Biological target: T1, SIRT1 (Homo sapiens, UniProt Q96EB6)
T1 sequence (Q96EB6 1-747): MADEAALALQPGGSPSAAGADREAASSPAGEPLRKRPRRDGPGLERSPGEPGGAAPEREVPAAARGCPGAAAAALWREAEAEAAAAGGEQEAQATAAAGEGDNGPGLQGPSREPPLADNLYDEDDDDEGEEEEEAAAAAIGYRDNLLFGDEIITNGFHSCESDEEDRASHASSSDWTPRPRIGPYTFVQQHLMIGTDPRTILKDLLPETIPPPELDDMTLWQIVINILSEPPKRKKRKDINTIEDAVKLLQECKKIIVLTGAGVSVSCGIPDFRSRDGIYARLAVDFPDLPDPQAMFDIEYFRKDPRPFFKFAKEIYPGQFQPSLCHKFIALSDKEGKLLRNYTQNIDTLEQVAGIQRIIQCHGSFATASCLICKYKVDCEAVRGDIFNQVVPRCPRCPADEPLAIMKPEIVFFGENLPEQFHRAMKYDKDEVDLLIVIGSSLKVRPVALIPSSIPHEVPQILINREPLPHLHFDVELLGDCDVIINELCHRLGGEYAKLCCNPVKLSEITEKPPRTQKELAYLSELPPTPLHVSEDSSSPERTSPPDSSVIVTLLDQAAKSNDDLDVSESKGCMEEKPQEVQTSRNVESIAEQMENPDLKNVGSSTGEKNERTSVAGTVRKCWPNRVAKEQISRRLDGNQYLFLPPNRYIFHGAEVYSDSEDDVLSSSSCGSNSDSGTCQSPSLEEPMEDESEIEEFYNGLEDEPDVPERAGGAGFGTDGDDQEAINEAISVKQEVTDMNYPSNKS
Assay: Trp mass spectrometry assay (SIRT1 activation)
Type: biochemical
Details: Trp mass spectrometry assay; for Tryp AVG EC1.5 (μM): EC1.5 = concentration giving 150% activation of SIRT1; for Emax: percent maximum fold activation of SIRT1, read-out: Tryp % Fold Act
Outline: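 N-His-tagged SIRT1 (10 nM), expressed in E. coli, was incubated with 0.5 μM Ac-RHKK(Ac)W-NH2 peptide and 120 μM NAD+ for 25 min at 25 °C in HEPES pH 7.5 with […]. The reaction was stopped with formic acid and O-acetyl-ADP-ribose or deacetylated peptide was quantified by mass spectrometry. Results are given as EC1.5 and percent maximal activation relative to DMSO control.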

| Compound | Tryp AVG EC1.5 (μM) | Emax |
| --- | --- | --- |
| COc1cc(NC(=O)N2c3nc(-c4cccc(C(F)(F)F)c4)ccc3N3C[C@@H](O)[C@H]2C3)nc(OC)n1 [Example 664] | B (EC1.5 1-25 μM) | ≥ 150% |
| O=C(Nc1cccc(-c2ccccn2)c1)N1c2nc(-c3cccc(C(F)(F)F)c3)ccc2N2CC[C@H]1C2 [Example 667] | A (EC1.5<1 μM) | ≥ 150% |
| CC(=O)c1ccc(NC(=O)N2c3nc(-c4cccc(C(F)(F)F)c4)ccc3N3CC[C@H]2C3)cc1 [Example 668] | A (EC1.5<1 μM) | ≥ 150% |
| O=C(Nc1ccncn1)N1c2nc(-c3cccc(C(F)(F)F)c3)ccc2N2C[C@@H](O)[C@H]1C2 [Example 669] | B (EC1.5 1-25 μM) | ≥ 150% |
| O=C(Nc1ccc(Br)c(-c2cnco2)c1)N1c2nc(-c3cccc(C(F)(F)F)c3)ccc2N2CC[C@H]1C2 [Example 672] | A (EC1.5<1 μM) | ≥ 150% |
| O=C(Nc1ccccn1)N1c2nc(-c3cccc(Cl)c3)ccc2N2C[C@@H](O)[C@H]1C2 [Example 675] | B (EC1.5 1-25 μM) | ≥ 150% |
| Cc1cncc(NC(=O)N2c3nc(-c4cccc(Cl)c4)ccc3N3C[C@@H](O)[C@H]2C3)c1 [Example 676] | A (EC1.5<1 μM) | ≥ 150% |
| O=C(Nc1cncc(F)c1)N1c2nc(-c3cccc(Cl)c3)ccc2N2C[C@@H](O)[C@H]1C2 [Example 677] | B (EC1.5 1-25 μM) | ≥ 150% |
| O=C(Nc1cccnc1)N1c2nc(-c3cccc(Cl)c3)ccc2N2C[C@@H](O)[C@H]1C2 [Example 681] | B (EC1.5 1-25 μM) | ≥ 150% |
| O=C(Nc1ccncn1)N1c2nc(-c3cccc(Cl)c3)ccc2N2C[C@@H](O)[C@H]1C2 [Example 684] | B (EC1.5 1-25 μM) | ≥ 150% |
| O=C(Nc1cc(-c2cnco2)ccn1)N1c2nc(-c3cccc(Cl)c3)ccc2N2C[C@@H](O)[C@H]1C2 [Example 685] | B (EC1.5 1-25 μM) | ≥ 150% |
| O=C(NCCCCn1ccnc1)N1c2nc(-c3cccc(C(F)(F)F)c3)ccc2N2CC[C@H]1C2 [Example 689] | B (EC1.5 1-25 μM) | ≥ 150% |
| Cc1cncc(NC(=O)N2c3nc(-c4cncc(C(F)(F)F)c4)ccc3N3C[C@@H](O)[C@H]2C3)c1 [Example 690] | B (EC1.5 1-25 μM) | ≥ 150% |
| O=C(Nc1cncc(F)c1)N1c2nc(-c3cncc(C(F)(F)F)c3)ccc2N2C[C@@H](O)[C@H]1C2 [Example 691] | B (EC1.5 1-25 μM) | ≥ 150% |
| O=C1CN2C[C@H]1N(C(=O)Nc1cccc(-c3cnco3)c1)c1nc(-c3cccc(C(F)(F)F)c3)ccc12 [Example 692] | A (EC1.5<1 μM) | ≥ 150% |
| COc1cc(NC(=O)N2c3nc(-c4cncc(C(F)(F)F)c4)ccc3N3C[C@@H](O)[C@H]2C3)ncn1 [Example 696] | B (EC1.5 1-25 μM) | ≥ 150% |
| Cc1nc(NC(=O)N2c3nc(-c4cccc(C(F)(F)F)c4)ccc3N3C[C@@H](O)[C@H]2C3)sc1C [Example 699] | B (EC1.5 1-25 μM) | ≥ 150% |
| O=C(Nc1ccncn1)N1c2nc(-c3cncc(C(F)(F)F)c3)ccc2N2C[C@@H](O)[C@H]1C2 [Example 700] | B (EC1.5 1-25 μM) | ≥ 150% |
| O=C(Nc1cccnn1)N1c2nc(-c3cncc(C(F)(F)F)c3)ccc2N2C[C@@H](O)[C@H]1C2 [Example 701] | B (EC1.5 1-25 μM) | ≥ 150% |
| COc1cc(NC(=O)N2c3nc(-c4cncc(C(F)(F)F)c4)ccc3N3C[C@@H](O)[C@H]2C3)nc(OC)n1 [Example 704] | B (EC1.5 1-25 μM) | ≥ 150% |
| O=C(Nc1cccnc1)N1c2nc(-c3cncc(C(F)(F)F)c3)ccc2N2C[C@@H](O)[C@H]1C2 [Example 705] | B (EC1.5 1-25 μM) | ≥ 150% |
| O=C(NCc1ncc(-c2cccc(NC(=O)N3c4nc(-c5cccc(C(F)(F)F)c5)ccc4N4CC[C@H]3C4)c2)o1)OCc1ccccc1 [Example 706] | A (EC1.5<1 μM) | ≥ 150% |

Now from value to compound:

| Tryp AVG EC1.5 (μM) | Emax | Compound |
| --- | --- | --- |
| A (EC1.5<1 μM) | ≥ 150% | O=C(Nc1cccnc1)N1c2nc(-c3cccc(C(F)(F)F)c3)ccc2N2C[C@@H](O)[C@H]1C2 [Example 663] |
| A (EC1.5<1 μM) | ≥ 150% | O=C(Nc1cccc(-c2cnco2)c1)N1c2nc(-c3cccc(C(F)(F)F)c3)ccc2N2C[C@@H](O)[C@H]1C2 [Example 665] |
| A (EC1.5<1 μM) | ≥ 150% | O=C(Nc1ccc2[nH]ncc2c1)N1c2nc(-c3cccc(C(F)(F)F)c3)ccc2N2CC[C@H]1C2 [Example 666] |
| A (EC1.5<1 μM) | ≥ 150% | Cc1cncc(NC(=O)N2c3nc(-c4cccc(C(F)(F)F)c4)ccc3N3C[C@@H](O)[C@H]2C3)c1 [Example 670] |
| A (EC1.5<1 μM) | ≥ 150% | CC(=O)c1cccc(NC(=O)N2c3nc(-c4cccc(C(F)(F)F)c4)ccc3N3CC[C@H]2C3)c1 [Example 671] |
| B (EC1.5 1-25 μM) | ≥ 150% | O=C(NCCCc1ccccn1)N1c2nc(-c3cccc(C(F)(F)F)c3)ccc2N2CC[C@H]1C2 [Example 673] |
| B (EC1.5 1-25 μM) | ≥ 150% | O=C(NCCCc1cccnc1)N1c2nc(-c3cccc(C(F)(F)F)c3)ccc2N2CC[C@H]1C2 [Example 674] |
| C (EC1.5>25 μM) | < 150% | O=C(Nc1cnccn1)N1c2nc(-c3cccc(Cl)c3)ccc2N2C[C@@H](O)[C@H]1C2 [Example 678] |
| B (EC1.5 1-25 μM) | ≥ 150% | COc1cc(NC(=O)N2c3nc(-c4cccc(Cl)c4)ccc3N3C[C@@H](O)[C@H]2C3)ncn1 [Example 679] |
| B (EC1.5 1-25 μM) | ≥ 150% | COc1cc(NC(=O)N2c3nc(-c4cccc(Cl)c4)ccc3N3C[C@@H](O)[C@H]2C3)nc(OC)n1 [Example 680] |
| B (EC1.5 1-25 μM) | ≥ 150% | O=C(Nc1cccnn1)N1c2nc(-c3cccc(Cl)c3)ccc2N2C[C@@H](O)[C@H]1C2 [Example 682] |
| A (EC1.5<1 μM) | ≥ 150% | O=C(Nc1cccc(-c2cnco2)c1)N1c2nc(-c3cccc(Cl)c3)ccc2N2C[C@@H](O)[C@H]1C2 [Example 683] |
| B (EC1.5 1-25 μM) | ≥ 150% | Cc1nc(NC(=O)N2c3nc(-c4cccc(Cl)c4)ccc3N3C[C@@H](O)[C@H]2C3)sc1C [Example 688] |
| A (EC1.5<1 μM) | ≥ 150% | O=C(Nc1cccc(-c2cnco2)n1)N1c2nc(-c3cccc(Cl)c3)ccc2N2C[C@@H](O)[C@H]1C2 [Example 693] |
| A (EC1.5<1 μM) | ≥ 150% | O=C(Nc1ccccn1)N1c2nc(-c3cncc(C(F)(F)F)c3)ccc2N2C[C@@H](O)[C@H]1C2 [Example 694] |
| B (EC1.5 1-25 μM) | ≥ 150% | O=C(Nc1cnccn1)N1c2nc(-c3cncc(C(F)(F)F)c3)ccc2N2C[C@@H](O)[C@H]1C2 [Example 695] |
| B (EC1.5 1-25 μM) | ≥ 150% | Cc1nc(NC(=O)N2c3nc(-c4cncc(C(F)(F)F)c4)ccc3N3C[C@@H](O)[C@H]2C3)sc1C [Example 697] |
| A (EC1.5<1 μM) | ≥ 150% | O=C(Nc1cccc(-c2cnco2)n1)N1c2nc(-c3cccc(C(F)(F)F)c3)ccc2N2C[C@@H](O)[C@H]1C2 [Example 698] |
| A (EC1.5<1 μM) | ≥ 150% | O=C(Nc1cccc(-c2cnco2)n1)N1c2nc(-c3cncc(C(F)(F)F)c3)ccc2N2C[C@@H](O)[C@H]1C2 [Example 703] |
| A (EC1.5<1 μM) | ≥ 150% | O=C(CCCCCNC(=O)c1ccc2c(c1)C(=O)OC21c2ccc(O)cc2Oc2cc(O)ccc21)NCc1ncc(-c2cccc(NC(=O)N3c4nc(-c5cccc(C(F)(F)F)c5)ccc4N4CC[C@H]3C4)c2)o1 [Example 708] |
| A (EC1.5<1 μM) | ≥ 150% | O=C(Nc1cccc(-c2cnco2)c1)N1c2nc(-c3cncc(C(F)(F)F)c3)ccc2N2C[C@@H](O)[C@H]1C2 [Example 709] |
| A (EC1.5<1 μM) | ≥ 150% | CS(=O)(=O)c1cccc(-c2ccc3c(n2)N(C(=O)Nc2cccc(-c4cnco4)c2)[C@H]2CCN3C2)c1 [Example 710] |
| A (EC1.5<1 μM) | ≥ 150% | CCC(=O)c1cccc(NC(=O)N2c3nc(-c4cccc(C(F)(F)F)c4)ccc3N3CC[C@H]2C3)c1 [Example 714] |
